Assay in all cases: relative viability (nuclei count vs DMSO), 5 days (fraction); higher = more cells survive
Compound in the test “GW-2580 + Pictilisib”: COC1=CC=C(C=C1)COC2=C(C=C(C=C2)CC3=CN=C(N=C3N)N)OC [GW-2580] + CS(=O)(=O)N1CCN(Cc2cc3nc(-c4cccc5[nH]ncc45)nc(N4CCOCC4)c3s2)CC1 [Pictilisib] (partner 1 µM)
The method, boiled down:
(§1)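 Medians of duplicate plates are given as relative viability. That measure is the nuclei count in treated wells divided by the count in vehicle wells. Counts were taken on 4× images of lung cancer cell lines in 1536-well plates, 5 days after pin-tool dosing the day after seeding with one drug alone or a fixed anchor-drug dose plus five library-drug doses (not always all listed) in √10 steps.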

Compound in the test “Fedratinib + Linsitinib”: Cc1cnc(Nc2ccc(OCCN3CCCC3)cc2)nc1Nc1cccc(S(=O)(=O)NC(C)(C)C)c1 [Fedratinib] + C[C@]1(O)C[C@@H](c2nc(-c3ccc4ccc(-c5ccccc5)nc4c3)c3c(N)nccn32)C1 [Linsitinib] (partner 1 µM)
In outline:
as §1

Compound in the test “GW-2580 + Luminespib”: COC1=CC=C(C=C1)COC2=C(C=C(C=C2)CC3=CN=C(N=C3N)N)OC [GW-2580] + CCNC(=O)c1noc(-c2cc(C(C)C)c(O)cc2O)c1-c1ccc(CN2CCOCC2)cc1 [Luminespib] (partner 0.01 µM)
The method, boiled down: as §1

Compound in the test “GW-2580 + Foretinib”: COC1=CC=C(C=C1)COC2=C(C=C(C=C2)CC3=CN=C(N=C3N)N)OC [GW-2580] + COc1cc2c(Oc3ccc(NC(=O)C4(C(=O)Nc5ccc(F)cc5)CC4)cc3F)ccnc2cc1OCCCN1CCOCC1 [Foretinib] (partner 0.25 µM)
The method, boiled down:
as §1

Compound in the test “GW-2580 + Decitabine”: COC1=CC=C(C=C1)COC2=C(C=C(C=C2)CC3=CN=C(N=C3N)N)OC [GW-2580] + Nc1ncn([C@H]2C[C@H](O)[C@@H](CO)O2)c(=O)n1 [Decitabine] (partner 2 µM)
In outline:
as §1

On to COR-L 105, for which the relative viability with GW-2580 + Pictilisib (first compound 0.08 µM) came to 0.36; in the test with GW-2580 + Pictilisib (first compound 0.8 µM), 0.404; with GW-2580 + Pictilisib (first compound 2.53 µM) it was 0.353; with GW-2580 + Pictilisib (first compound 8 µM), 0.375; with Fedratinib + Linsitinib (first compound 0.1 µM) it was 0.951; with Fedratinib + Linsitinib (first compound 0.3162 µM) it was 0.817. Moreover, the relative viability with Fedratinib + Linsitinib (first compound 1 µM) was determined as 0.827; with GW-2580 + Luminespib (first compound 0.08 µM), 0.63; with GW-2580 + Luminespib (first compound 0.8 µM), 0.588; with GW-2580 + Luminespib (first compound 2.53 µM) it was 0.681; with GW-2580 + Luminespib (first compound 8 µM), 0.647; in the test with GW-2580 + Foretinib (first compound 0.08 µM), 1.09. Besides, the relative viability with GW-2580 + Foretinib (first compound 0.8 µM) came out at 1.19; with GW-2580 + Foretinib (first compound 2.53 µM), 1.05; with GW-2580 + Foretinib (first compound 8 µM), 0.993; in the test with GW-2580 + Decitabine (first compound 0.08 µM) it was 0.755; in the test with GW-2580 + Decitabine (first compound 0.8 µM) it was 0.739; with GW-2580 + Decitabine (first compound 2.53 µM), 0.675. Also, the relative viability with GW-2580 + Decitabine (first compound 8 µM) was 0.558.

In the case of NCI-H1355, the relative viability turned out to be 0.476 with GW-2580 + Pictilisib (first compound 0.08 µM); 0.43 with GW-2580 + Pictilisib (first compound 0.8 µM); 0.274 with GW-2580 + Pictilisib (first compound 2.53 µM); 0.421 with GW-2580 + Pictilisib (first compound 8 µM); 0.684 with Fedratinib + Linsitinib (first compound 0.1 µM); 0.822 with Fedratinib + Linsitinib (first compound 0.3162 µM). Moreover, the relative viability with Fedratinib + Linsitinib (first compound 1 µM) was 0.796; with GW-2580 + Luminespib (first compound 0.08 µM), 0.816; with GW-2580 + Luminespib (first compound 0.8 µM) it was 0.841; with GW-2580 + Luminespib (first compound 2.53 µM), 0.694; in the test with GW-2580 + Luminespib (first compound 8 µM), 0.669; with GW-2580 + Foretinib (first compound 0.08 µM), 1.04. The relative viability in the test with GW-2580 + Foretinib (first compound 0.8 µM) is 1.06; in the test with GW-2580 + Foretinib (first compound 2.53 µM), 0.841; with GW-2580 + Foretinib (first compound 8 µM), 0.923; with GW-2580 + Decitabine (first compound 0.08 µM), 0.314; with GW-2580 + Decitabine (first compound 0.8 µM), 0.339; with GW-2580 + Decitabine (first compound 2.53 µM) it was 0.322. Moreover, the relative viability with GW-2580 + Decitabine (first compound 8 µM) amounted to 0.353.

Turning to H3255, the relative viability turned out to be 0.534 in the test with GW-2580 + Pictilisib (first compound 0.08 µM); 0.471 with GW-2580 + Pictilisib (first compound 0.8 µM); 0.419 in the test with GW-2580 + Pictilisib (first compound 2.53 µM); 0.464 in the test with GW-2580 + Pictilisib (first compound 8 µM); 1.04 with Fedratinib + Linsitinib (first compound 0.1 µM); 1.03 with Fedratinib + Linsitinib (first compound 0.3162 µM). In addition, the relative viability was 0.926 in the test with Fedratinib + Linsitinib (first compound 1 µM); 0.825 in the test with GW-2580 + Luminespib (first compound 0.08 µM); 1.1 in the test with GW-2580 + Luminespib (first compound 0.8 µM); 0.84 with GW-2580 + Luminespib (first compound 2.53 µM); 0.67 in the test with GW-2580 + Luminespib (first compound 8 µM); 0.859 in the test with GW-2580 + Foretinib (first compound 0.08 µM). Moreover, the relative viability worked out at 0.835 in the test with GW-2580 + Foretinib (first compound 0.8 µM); 0.742 in the test with GW-2580 + Foretinib (first compound 2.53 µM); 0.829 with GW-2580 + Foretinib (first compound 8 µM); 0.564 in the test with GW-2580 + Decitabine (first compound 0.08 µM); 0.613 with GW-2580 + Decitabine (first compound 0.8 µM); 0.557 in the test with GW-2580 + Decitabine (first compound 2.53 µM). The relative viability in the test with GW-2580 + Decitabine (first compound 8 µM) was found to be 0.576.

Take NCI-H1993: the relative viability with GW-2580 + Pictilisib (first compound 0.08 µM) amounted to 0.827; with GW-2580 + Pictilisib (first compound 0.8 µM), 0.804; in the test with GW-2580 + Pictilisib (first compound 8 µM) it was 0.655; with Fedratinib + Linsitinib (first compound 0.1 µM), 0.706; with Fedratinib + Linsitinib (first compound 0.3162 µM), 0.718; in the test with Fedratinib + Linsitinib (first compound 1 µM) it was 0.682. Moreover, the relative viability came to 0.853 in the test with GW-2580 + Luminespib (first compound 0.08 µM); 0.907 in the test with GW-2580 + Luminespib (first compound 0.8 µM); 0.71 with GW-2580 + Luminespib (first compound 2.53 µM); 0.852 with GW-2580 + Luminespib (first compound 8 µM); 0.921 with GW-2580 + Foretinib (first compound 0.08 µM); 0.765 with GW-2580 + Foretinib (first compound 0.8 µM). The relative viability with GW-2580 + Foretinib (first compound 2.53 µM) worked out at 0.686; in the test with GW-2580 + Foretinib (first compound 8 µM), 0.746; with GW-2580 + Decitabine (first compound 0.08 µM), 0.652; in the test with GW-2580 + Decitabine (first compound 0.8 µM), 0.665; with GW-2580 + Decitabine (first compound 2.53 µM), 0.514; with GW-2580 + Decitabine (first compound 8 µM) it was 0.63.

Take NCI-H1734: the relative viability with GW-2580 + Pictilisib (first compound 0.08 µM) turned out to be 0.491; with GW-2580 + Pictilisib (first compound 0.8 µM), 0.478; with GW-2580 + Pictilisib (first compound 2.53 µM), 0.431; in the test with GW-2580 + Pictilisib (first compound 8 µM) it was 0.436; with Fedratinib + Linsitinib (first compound 0.1 µM), 0.898; in the test with Fedratinib + Linsitinib (first compound 0.3162 µM) it was 0.865. For the same cell line, the relative viability was 0.776 in the test with Fedratinib + Linsitinib (first compound 1 µM); 0.169 with GW-2580 + Luminespib (first compound 0.08 µM); 0.171 with GW-2580 + Luminespib (first compound 0.8 µM); 0.193 in the test with GW-2580 + Luminespib (first compound 2.53 µM); 0.19 with GW-2580 + Luminespib (first compound 8 µM); 0.894 with GW-2580 + Foretinib (first compound 0.08 µM). Besides, the relative viability with GW-2580 + Foretinib (first compound 0.8 µM) came out at 0.855; with GW-2580 + Foretinib (first compound 2.53 µM) it was 0.783; with GW-2580 + Foretinib (first compound 8 µM), 0.717; with GW-2580 + Decitabine (first compound 0.08 µM), 0.522; with GW-2580 + Decitabine (first compound 0.8 µM), 0.457; with GW-2580 + Decitabine (first compound 2.53 µM), 0.539. In addition, in the test with GW-2580 + Decitabine (first compound 8 µM), the relative viability was found to be 0.55.

The values above are taken from the supplement of paper PMC10307832.
